From ChEMBL document CHEMBL5029183 (J Med Chem, 2021)
Calls of active or inactive are those of the source.

Legend:
Mus musculus [1] = test: Antiallodynic activity in Kunming mouse model of CFA-induced inflammatory pain assessed as increase in ipsilateral withdrawal threshold at 10 micromol/kg, sc measured at 10 to 50 mins by von Frey test; assay type: functional, organism-based; settings: dose 10.0 µmol/kg, time 10-50 min
Mus musculus [2] = test: Antinociceptive activity in Kunming mouse model assessed as increase in paw withdrawal latency at 10 micromol/kg, sc pretreated with icv dosed naloxone methiodide for 5 mins followed by compound addition by radiant heat paw withdrawal assay; assay type: functional, organism-based; settings: dose 10.0 µmol/kg
Mus musculus [3] = test: Antinociceptive activity in icv dosed Kunming mouse model assessed as increase in paw withdrawal latency by radiant heat paw withdrawal assay; assay type: functional; settings: dose 0.67-20 nmol
Mus musculus [4] = test: Antinociceptive activity in Kunming mouse model assessed as increase in paw withdrawal latency at 10 micromol/kg, sc pretreated with sc dosed naloxone for 5 mins followed by compound addition by radiant heat paw withdrawal assay; assay type: functional, organism-based; settings: dose 10.0 µmol/kg
Mus musculus [5] = test: Antinociceptive activity in Kunming mouse model assessed as maximum possible effect at 10 micromol/kg, sc by radiant heat paw withdrawal assay; assay type: functional; settings: dose 10 µmol/kg
Mus musculus [6] = test: Antiallodynic activity in Kunming mouse model of spared nerve injury-induced neuropathic pain assessed as increase in paw withdrawal threshold at 10 micromol/kg, sc by von Frey test; assay type: functional, organism-based; settings: dose 10.0 µmol/kg
Mus musculus [7] = test: Antinociceptive activity in Kunming mouse model assessed as increase in paw withdrawal latency at 20 nmol, icv pretreated for 4 hrs with beta-FNA followed by compound addition and measured upto 10 mins by radiant heat paw withdrawal assay; assay type: functional, organism-based; settings: time min <=10
[8] = Toxicity in Kunming mouse assessed as effect on motor coordination at 10 micromol/kg, sc by rotarod test; assay type: organism-based; settings: in vivo, dose 10 µmol/kg
Mus musculus [9] = test: Antiallodynic activity in icv dosed Kunming mouse model of spared nerve injury-induced neuropathic pain assessed as increase in paw withdrawal threshold measured upto 50 mins by von Frey test; assay type: functional, organism-based; settings: dose 0.67-6.7 nmol, time min <=50
Mus musculus [10] = test: Antinociceptive activity in Kunming mouse model assessed as increase in paw withdrawal latency at 0.67 to 20 nmol, icv by radiant heat paw withdrawal assay; assay type: functional, organism-based; settings: dose 0.67-20 nmol, TDE = time-dependent effect
[11] = Metabolic stability in Kunming mouse brain assessed as half life measured upto 480 mins by RP-HPLC analysis; assay type: ADME, tissue-based
Mus musculus [12] = test: Antinociceptive activity in Kunming mouse model assessed as increase in paw withdrawal latency at 10 micromol/kg, sc pretreated with sc dosed naloxone methiodide for 5 mins followed by compound addition by radiant heat paw withdrawal assay; assay type: functional, organism-based; settings: dose 10.0 µmol/kg
Mus musculus [13] = test: Antiallodynic activity in Kunming mouse model of spared nerve injury-induced neuropathic pain assessed as increase in paw withdrawal threshold at 0.67 to 6.7 nmol, icv after 50 mins by von Frey test; assay type: functional, organism-based; settings: dose 0.67-6.7 nmol
[14] = Metabolic stability in Kunming mouse serum assessed as half life measured upto 480 mins by RP-HPLC analysis; assay type: ADME, cell-free
Mus musculus [15] = test: Antiallodynic activity in Kunming mouse model of spared nerve injury-induced neuropathic pain assessed as increase in paw withdrawal threshold at 10 micromol/kg, sc measured at 10 to 50 mins by von Frey test; assay type: functional, organism-based; settings: dose 10.0 µmol/kg, time 10-50 min
[16] = Toxicity in Kunming mouse assessed as effect on motor coordination at 20 nmol, icv by rotarod test; settings: in vivo, icv_or_intrathecal
Mu-type opioid receptor = Mu-type opioid receptor (Homo sapiens, UniProt P35372); test: Agonist activity at mu-opioid receptor (unknown origin) expressed in HEK293 cells assessed as inhibition of forskolin-induced cAMP accumulation incubated for 15 mins by ELISA relative to control; assay type: functional, cell-based; settings: filed as agonist
Chain of Mu-type opioid receptor (P35372 whole entry): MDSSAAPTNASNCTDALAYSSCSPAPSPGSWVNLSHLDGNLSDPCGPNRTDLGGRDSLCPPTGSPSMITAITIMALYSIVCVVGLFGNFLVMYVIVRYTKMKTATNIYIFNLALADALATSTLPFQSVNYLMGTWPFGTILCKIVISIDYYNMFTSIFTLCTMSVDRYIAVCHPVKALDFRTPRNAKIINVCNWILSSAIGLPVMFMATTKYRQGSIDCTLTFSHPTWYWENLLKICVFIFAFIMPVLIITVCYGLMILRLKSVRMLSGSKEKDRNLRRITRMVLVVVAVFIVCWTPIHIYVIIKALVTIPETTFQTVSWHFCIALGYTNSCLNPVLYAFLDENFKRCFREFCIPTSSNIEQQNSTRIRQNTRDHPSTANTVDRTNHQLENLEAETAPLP

Mus musculus [17] = test: Antinociceptive tolerance in Kunming mouse pretreated with compound for 3 hrs followed by challenge with second dose of compound at 20 nmol, icv and measured after 2 to 2.5 hrs by radiant heat paw withdrawal test; assay type: functional, organism-based; settings: time lower 5.0 hrs, time upper […]
Rattus norvegicus = organism: Rattus norvegicus; test: Selectivity index, ratio of Ki for displacement of [3H]DPDPE from DOR in Wistar rat brain membranes to Ki for displacement of [3H]DAMGO from MOR in Wistar rat brain membranes; assay type: cell membranes
[18] = Toxicity in Kunming mouse model assessed as conditioned place preference time at 20 nmol, icv; settings: in vivo, icv_or_intrathecal
Mus musculus [19] = test: Antiallodynic activity in icv dosed Kunming mouse model of CFA-induced inflammatory pain assessed as increase in ipsilateral withdrawal threshold measured upto 50 mins by von Frey test; assay type: functional, organism-based; settings: dose 0.67-6.7 nmol, time min <=50
Mus musculus [20] = organism: Mus musculus; test: Tolerance ratio of ED50 for Kunming mouse pretreated with 3 times ED50 of compound for 2 hrs followed by challenge with second dose of compound to ED50 for Kunming mouse pretreated with saline for 2 hrs followed by compound addition; assay type: functional
Mus musculus [21] = organism: Mus musculus; test: Antinociceptive tolerance in Kunming mouse pretreated with 3 times ED50 of compound for 2 hrs followed by challenge with second dose of compound by radiant heat paw withdrawal test; assay type: functional
[22] = biological target: Kappa-type opioid receptor (Homo sapiens) (UniProt P41145); test: Agonist activity at kappa-opioid receptor (unknown origin) expressed in HEK293 cells assessed as inhibition of forskolin-induced cAMP accumulation incubated for 15 mins by ELISA; assay type: functional, cell-based
Chain of Kappa-type opioid receptor (Homo sapiens) (P41145 whole entry): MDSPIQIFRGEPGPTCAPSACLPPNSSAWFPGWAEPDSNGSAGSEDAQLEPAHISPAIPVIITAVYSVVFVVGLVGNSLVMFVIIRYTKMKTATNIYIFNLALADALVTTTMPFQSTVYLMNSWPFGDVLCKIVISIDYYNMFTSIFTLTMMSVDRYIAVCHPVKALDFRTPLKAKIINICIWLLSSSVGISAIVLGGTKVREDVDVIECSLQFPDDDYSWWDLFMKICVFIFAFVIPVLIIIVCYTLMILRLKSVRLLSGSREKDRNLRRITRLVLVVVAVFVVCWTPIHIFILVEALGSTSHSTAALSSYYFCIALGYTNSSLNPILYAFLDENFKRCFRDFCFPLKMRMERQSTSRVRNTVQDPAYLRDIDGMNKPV

Mus musculus [23] = test: Antinociceptive activity in Kunming mouse model assessed as increase in paw withdrawal latency at 0.67 to 20 nmol, icv measured after 10 mins by radiant heat paw withdrawal assay; assay type: functional, organism-based; settings: dose 0.67-20 nmol
Mus musculus [24] = test: Antinociceptive tolerance in Kunming mouse pretreated with compound for 3 hrs followed by challenge with second dose of compound at 20 nmol, icv and measured after 3 hrs by radiant heat paw withdrawal test; assay type: functional, organism-based; settings: time 6.0 hrs
Mus musculus [25] = test: Antiallodynic activity in Kunming mouse model of CFA-induced inflammatory pain assessed as increase in ipsilateral withdrawal threshold at 0.67 to 6.7 nmol, icv measured at 10 to 50 mins by von Frey test; assay type: functional, organism-based; settings: dose 0.67-6.7 nmol, time 10-50 min
Mus musculus [26] = test: Antiallodynic activity in Kunming mouse model of spared nerve injury-induced neuropathic pain assessed as increase in paw withdrawal threshold at 0.67 to 6.7 nmol, icv at 10 mins by von Frey test; assay type: functional, organism-based; settings: dose 0.67-6.7 nmol
Mus musculus [27] = test: Antinociceptive activity in Kunming mouse model assessed as increase in paw withdrawal latency at 10 micromol/kg, sc by radiant heat paw withdrawal assay; assay type: functional, organism-based; settings: dose 10.0 µmol/kg
Ileum = test: Inhibition of electric-field induced guinea pig ileum contraction; assay type: functional, tissue-based; settings: Cavia porcellus
[28] = Toxicity in icv dosed Kunming mouse assessed as inhibition of gastrointestinal transit by measuring charcoal distance travel by charcoal meal test; assay type: organism-based; settings: in vivo, icv_or_intrathecal, dose 0.67-6.7 nmol
Mus musculus [29] = test: Antinociceptive activity in Kunming mouse model assessed as increase in paw withdrawal latency at 20 nmol, icv pretreated for 20 mins with naloxonazine followed by compound addition and measured upto 10 mins by radiant heat paw withdrawal assay; assay type: functional, organism-based; settings: time min <=10
Mus musculus [30] = test: Antinociceptive activity in Kunming mouse model assessed as increase in paw withdrawal latency at 20 nmol, icv pretreated for 10 mins with naloxone followed by compound addition and measured upto 10 mins by radiant heat paw withdrawal assay; assay type: functional, organism-based; settings: time min <=10
Mus musculus [31] = test: Antinociceptive activity in Kunming mouse model assessed as increase in paw withdrawal latency at 0.67 to 20 nmol, icv measured upto 50 mins by radiant heat paw withdrawal assay; assay type: functional, organism-based; settings: dose 0.67-20 nmol, time min <=50
Mus musculus [32] = test: Antinociceptive activity in Kunming mouse model assessed as increase in paw withdrawal latency at 20 nmol, icv pretreated for 30 mins with nor-BNI followed by compound addition and measured upto 10 mins by radiant heat paw withdrawal assay; assay type: functional, organism-based; settings: time min <=10
[33] = biological target: Delta-type opioid receptor (Rattus norvegicus, UniProt P33533); test: Displacement of [3H]DPDPE from DOR in Wistar rat brain membranes measured after 3 hrs by scintillation counting method; assay type: cell membranes, Membrane
Chain of Delta-type opioid receptor (P33533 whole entry): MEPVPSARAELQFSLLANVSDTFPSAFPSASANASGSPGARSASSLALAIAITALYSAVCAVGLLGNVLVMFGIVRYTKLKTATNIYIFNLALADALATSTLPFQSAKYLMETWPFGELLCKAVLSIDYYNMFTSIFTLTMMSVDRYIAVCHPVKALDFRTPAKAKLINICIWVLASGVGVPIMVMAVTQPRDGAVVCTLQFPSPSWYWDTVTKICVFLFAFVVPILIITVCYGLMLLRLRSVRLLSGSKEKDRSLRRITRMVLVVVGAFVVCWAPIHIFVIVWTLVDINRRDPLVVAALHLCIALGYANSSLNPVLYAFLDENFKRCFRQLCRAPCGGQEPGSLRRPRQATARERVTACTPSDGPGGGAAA

Cc1cc(O)cc(C)c1C[C@H](N)C(=O)N[C@H]1CSSC[C@@H](C(=O)NCC(=O)N[C@H](CCCNC(=N)N)C(=O)N[C@H](CCCNC(=N)N)C(=O)O)NC(=O)[C@H](Cc2ccc(Cl)cc2)NC(=O)[C@H](Cc2ccccc2)NC1=O
Activity (Mus musculus [1]): Active
Activity (Mus musculus [2]): inactive
Activity (Mus musculus [3]): Dose-Dependent Effect
ED50 (Mus musculus [3]): 2.3 nmol
Activity (Mus musculus [4]): inactive
MPE (Mus musculus [5]): 75.33%
Activity (Mus musculus [6]): Active
Activity (Mus musculus [7]): inactive
Activity [8]: Non-Toxic
Activity (Mus musculus [9]): Dose-Dependent Effect
Activity (Mus musculus [10]): Tde
half-life [11]: 7.13 h
Activity (Mus musculus [12]): Active
Activity (Mus musculus [13]): inactive
half-life [14]: 5.33 h
Activity (Mus musculus [15]): Active
Activity [16]: Non-Toxic
Emax (Mu-type opioid receptor): 83.8%
Activity (Mus musculus [17]): Active
Ratio Ki (Rattus norvegicus): 705
Time [18]: 450 s
Activity (Mus musculus [19]): Dose-Dependent Effect
Ratio (Mus musculus [20]): 1.5
ED50 (Mus musculus [21]): 3.5 nmol
Activity [22]: inactive
Activity (Mus musculus [23]): Active
Activity (Mus musculus [24]): inactive
Activity (Mus musculus [25]): Active
Activity (Mus musculus [26]): Active
Activity (Mus musculus [27]): Active
IC50 (Ileum): 11.8 nM
Activity [28]: Dose-Dependent Effect
Activity (Mus musculus [29]): inactive
Activity (Mus musculus [30]): inactive
Activity (Mus musculus [31]): Active
Activity (Mus musculus [32]): inactive
Ki [33]: 4270 nM

Cc1cc(O)cc(C)c1C[C@H](N)C(=O)N[C@H]1CSSC[C@@H](C(=O)NCC(=O)N[C@H](CCCNC(=N)N)C(=O)N[C@H](CCCNC(=N)N)C(=O)O)NC(=O)[C@H](Cc2ccc(Cl)cc2)NC(=O)[C@H](Cc2c[nH]c3ccccc23)NC1=O
Activity (Mus musculus [1]): Active
Activity (Mus musculus [2]): inactive
Activity (Mus musculus [3]): Dose-Dependent Effect
ED50 (Mus musculus [3]): 2.1 nmol
Activity (Mus musculus [4]): inactive
MPE (Mus musculus [5]): 79.76%
Activity (Mus musculus [6]): Active
Activity (Mus musculus [7]): inactive
Activity [8]: Non-Toxic
Activity (Mus musculus [9]): Dose-Dependent Effect
Activity (Mus musculus [10]): Tde
half-life [11]: 7.48 h
Activity (Mus musculus [12]): Active
Activity (Mus musculus [13]): inactive
half-life [14]: 5.58 h
Activity (Mus musculus [15]): Active
Activity [16]: Non-Toxic
Emax (Mu-type opioid receptor): 87.3%
Activity (Mus musculus [17]): Active
Ratio Ki (Rattus norvegicus): 361
Time [18]: 447 s
Activity (Mus musculus [19]): Dose-Dependent Effect
Ratio (Mus musculus [20]): 1.2
ED50 (Mus musculus [21]): 2.7 nmol
Activity [22]: inactive
Activity (Mus musculus [23]): Active
Activity (Mus musculus [24]): inactive
Activity (Mus musculus [25]): Active
Activity (Mus musculus [26]): Active
Activity (Mus musculus [27]): Active
IC50 (Ileum): 9.21 nM
Activity [28]: Dose-Dependent Effect
Activity (Mus musculus [29]): Active
Activity (Mus musculus [30]): inactive
Activity (Mus musculus [31]): Active
Activity (Mus musculus [32]): Active
Ki [33]: 2090 nM
